The data set can be described thus: activity coefficient (dimensionless); of the first substance listed, at infinite dilution; xn = mol fraction of the nth substance listed. The settings on record: Liquid, Chromatography, x1 = 0.

Numbers after ± are expanded uncertainties.

In the case of `CCCCCCC` [heptane] + CCCOC[n+]1ccn(C)c1.O=S(=O)([N-]S(=O)(=O)C(F)(F)F)C(F)(F)F, the activity coefficient runs as follows: (323.15 K) 22.9 ± 1.6; (333.15 K) 20.4 ± 1.4; (343.15 K) 17.1 ± 1.2.

`CCCCCCC` [heptane] + CCCOC[n+]1ccn(Cc2ccccc2)c1.N#C[N-]C#N: the activity coefficient is, setting by setting: (323.15 K) 48 ± 3.3; (333.15 K) 44.9 ± 3.1; (343.15 K) 41.8 ± 2.9.

For `CCCCCCC` [heptane] + CCCOC[n+]1ccn(Cc2ccccc2)c1.O=S(=O)([N-]S(=O)(=O)C(F)(F)F)C(F)(F)F, the activity coefficient was 12 ± 0.82 (323.15 K), 10.1 ± 0.69 (333.15 K) and 9.58 ± 0.65 (343.15 K).

Take `CCCCCCC` [heptane] + CN(C)c1cc[n+](COCCCOC[n+]2ccc(N(C)C)cc2)cc1.O=S(=O)([N-]S(=O)(=O)C(F)(F)F)C(F)(F)F.O=S(=O)([N-]S(=O)(=O)C(F)(F)F)C(F)(F)F: the activity coefficient came to 28.9 ± 2 (323.15 K), 23.3 ± 1.6 (333.15 K) and 24.3 ± 1.7 (343.15 K).

With `CCCCCCC` [heptane] + Cn1cc[n+](COCCCOC[n+]2ccn(C)c2)c1.O=S(=O)([N-]S(=O)(=O)C(F)(F)F)C(F)(F)F.O=S(=O)([N-]S(=O)(=O)C(F)(F)F)C(F)(F)F, the activity coefficient was determined as 53 ± 3.6 (323.15 K) and 34 ± 2.3 (333.15 K).

As to `C=CCCCC` [hex-1-ene] + CCCCCCCCn1cc[n+](COCCC)c1C.N#C[N-]C#N, the activity coefficient came to 4.34 ± 0.3 (323.15 K), 4.37 ± 0.3 (333.15 K) and 3.94 ± 0.27 (343.15 K).

As for `C=CCCCC` [hex-1-ene] + CCCCCCCCn1cc[n+](COCCC)c1C.O=S(=O)([N-]S(=O)(=O)C(F)(F)F)C(F)(F)F, the activity coefficient (323.15 K) amounted to 2.65 ± 0.18, the activity coefficient (333.15 K) was found to be 2.38 ± 0.16 and the activity coefficient (343.15 K) is 2.47 ± 0.17.

Turning to `C=CCCCC` [hex-1-ene] + CCCCCCCCn1cc[n+](COCCCOC[n+]2ccn(CCCCCCCC)c2C)c1C.N#C[N-]C#N.N#C[N-]C#N, the activity coefficient was 4.93 ± 0.34 (323.15 K) and 4.41 ± 0.3 (333.15 K).

In the case of `C=CCCCC` [hex-1-ene] + CCCCCCCCn1cc[n+](COCCCOC[n+]2ccn(CCCCCCCC)c2C)c1C.O=S(=O)([N-]S(=O)(=O)C(F)(F)F)C(F)(F)F.O=S(=O)([N-]S(=O)(=O)C(F)(F)F)C(F)(F)F, the activity coefficient reads like this: (323.15 K) 2.33 ± 0.16; (333.15 K) 2.51 ± 0.17; (343.15 K) 2.35 ± 0.16.

On to `C=CCCCC` [hex-1-ene] + CCCOC[n+]1ccc(N(C)C)cc1.O=S(=O)([N-]S(=O)(=O)C(F)(F)F)C(F)(F)F, for which the activity coefficient was determined as 6.62 ± 0.45 (323.15 K), 6.79 ± 0.46 (333.15 K) and 5.24 ± 0.36 (343.15 K).

Take `C=CCCCC` [hex-1-ene] + CCCOC[n+]1ccn(C)c1.N#C[N-]C#N: under “323.15 K”, the activity coefficient was found to be 28 ± 1.9.

`C=CCCCC` [hex-1-ene] + CCCOC[n+]1ccn(Cc2ccccc2)c1.N#C[N-]C#N: the activity coefficient (323.15 K) came to 15.9 ± 1.1 and the activity coefficient (333.15 K) is 14.8 ± 1.

For `C=CCCCC` [hex-1-ene] + CCCOC[n+]1ccn(Cc2ccccc2)c1.O=S(=O)([N-]S(=O)(=O)C(F)(F)F)C(F)(F)F, the activity coefficient is, setting by setting: (323.15 K) 5.09 ± 0.35; (333.15 K) 4.32 ± 0.29; (343.15 K) 4.05 ± 0.28.

For the molecule `C=CCCCC` [hex-1-ene] + CN(C)c1cc[n+](COCCCOC[n+]2ccc(N(C)C)cc2)cc1.O=S(=O)([N-]S(=O)(=O)C(F)(F)F)C(F)(F)F.O=S(=O)([N-]S(=O)(=O)C(F)(F)F)C(F)(F)F, the activity coefficient came to 9.4 ± 0.64 (323.15 K), 8.7 ± 0.59 (333.15 K) and 7.95 ± 0.54 (343.15 K).

For `C=CCCCC` [hex-1-ene] + Cn1cc[n+](COCCCOC[n+]2ccn(C)c2)c1.O=S(=O)([N-]S(=O)(=O)C(F)(F)F)C(F)(F)F.O=S(=O)([N-]S(=O)(=O)C(F)(F)F)C(F)(F)F, the activity coefficient amounted to 15.1 ± 1 (323.15 K) and 10.1 ± 0.69 (333.15 K).

For `CCCCCC` [hexane] + CCCCCCCCn1cc[n+](COCCC)c1C.N#C[N-]C#N, the activity coefficient (323.15 K) amounted to 7.08 ± 0.48, the activity coefficient (333.15 K) turned out to be 6.92 ± 0.47 and the activity coefficient (343.15 K) was found to be 6.8 ± 0.46.

For the molecule `CCCCCC` [hexane] + CCCCCCCCn1cc[n+](COCCC)c1C.O=S(=O)([N-]S(=O)(=O)C(F)(F)F)C(F)(F)F, the activity coefficient reads like this: (323.15 K) 3.82 ± 0.26; (333.15 K) 3.74 ± 0.25; (343.15 K) 3.12 ± 0.21.

Take `CCCCCC` [hexane] + CCCCCCCCn1cc[n+](COCCCOC[n+]2ccn(CCCCCCCC)c2C)c1C.N#C[N-]C#N.N#C[N-]C#N: the activity coefficient (323.15 K) came to 8.9 ± 0.6.

Turning to `CCCCCC` [hexane] + CCCCCCCCn1cc[n+](COCCCOC[n+]2ccn(CCCCCCCC)c2C)c1C.O=S(=O)([N-]S(=O)(=O)C(F)(F)F)C(F)(F)F.O=S(=O)([N-]S(=O)(=O)C(F)(F)F)C(F)(F)F, the activity coefficient reads like this: (323.15 K) 3.74 ± 0.25; (333.15 K) 3.59 ± 0.24; (343.15 K) 3.45 ± 0.23.

On to `CCCCCC` [hexane] + CCCOC[n+]1ccc(N(C)C)cc1.O=S(=O)([N-]S(=O)(=O)C(F)(F)F)C(F)(F)F, for which the activity coefficient (323.15 K) turned out to be 11.9 ± 0.81, the activity coefficient (333.15 K) is 11 ± 0.75 and the activity coefficient (343.15 K) came out at 10.1 ± 0.69.

With `CCCCCC` [hexane] + CCCOC[n+]1ccn(C)c1.O=S(=O)([N-]S(=O)(=O)C(F)(F)F)C(F)(F)F, the activity coefficient amounted to 15.9 ± 1.1 (323.15 K) and 13.3 ± 0.91 (333.15 K).

Consider `CCCCCC` [hexane] + CCCOC[n+]1ccn(Cc2ccccc2)c1.N#C[N-]C#N, for which, where the note is “323.15 K”, the activity coefficient came to 32.4 ± 2.2.

Turning to `CCCCCC` [hexane] + CCCOC[n+]1ccn(Cc2ccccc2)c1.O=S(=O)([N-]S(=O)(=O)C(F)(F)F)C(F)(F)F, the activity coefficient came to 7.52 ± 0.51 (323.15 K), 7.21 ± 0.49 (333.15 K) and 6.92 ± 0.47 (343.15 K).

As for `CCCCCC` [hexane] + CN(C)c1cc[n+](COCCCOC[n+]2ccc(N(C)C)cc2)cc1.O=S(=O)([N-]S(=O)(=O)C(F)(F)F)C(F)(F)F.O=S(=O)([N-]S(=O)(=O)C(F)(F)F)C(F)(F)F, the activity coefficient was 7.4 ± 0.5 (323.15 K), 5.82 ± 0.4 (333.15 K) and 4.7 ± 0.32 (343.15 K).

Take `CCCCCC` [hexane] + Cn1cc[n+](COCCCOC[n+]2ccn(C)c2)c1.O=S(=O)([N-]S(=O)(=O)C(F)(F)F)C(F)(F)F.O=S(=O)([N-]S(=O)(=O)C(F)(F)F)C(F)(F)F: the activity coefficient is 18.2 ± 1.2 (323.15 K) and 31 ± 2.1 (333.15 K).

Consider `CO` [methanol] + CCCCCCCCn1cc[n+](COCCC)c1C.N#C[N-]C#N, for which the activity coefficient is 0.32 ± 0.03 (323.15 K), 0.29 ± 0.03 (333.15 K) and 0.28 ± 0.03 (343.15 K).

Regarding `CO` [methanol] + CCCCCCCCn1cc[n+](COCCC)c1C.O=S(=O)([N-]S(=O)(=O)C(F)(F)F)C(F)(F)F, the activity coefficient reads like this: (323.15 K) 0.98 ± 0.06; (333.15 K) 0.89 ± 0.06; (343.15 K) 0.85 ± 0.05.

As to `CO` [methanol] + CCCCCCCCn1cc[n+](COCCCOC[n+]2ccn(CCCCCCCC)c2C)c1C.N#C[N-]C#N.N#C[N-]C#N, the activity coefficient by setting is: (323.15 K) 0.2 ± 0.03; (333.15 K) 0.2 ± 0.03; (343.15 K) 0.21 ± 0.03.

Consider `CO` [methanol] + CCCCCCCCn1cc[n+](COCCCOC[n+]2ccn(CCCCCCCC)c2C)c1C.O=S(=O)([N-]S(=O)(=O)C(F)(F)F)C(F)(F)F.O=S(=O)([N-]S(=O)(=O)C(F)(F)F)C(F)(F)F, for which the activity coefficient by setting is: (323.15 K) 0.57 ± 0.04; (333.15 K) 0.51 ± 0.04; (343.15 K) 0.49 ± 0.04.

With `CO` [methanol] + CCCOC[n+]1ccc(N(C)C)cc1.O=S(=O)([N-]S(=O)(=O)C(F)(F)F)C(F)(F)F, the activity coefficient runs as follows: (323.15 K) 1.28 ± 0.08; (333.15 K) 1.23 ± 0.08; (343.15 K) 1.16 ± 0.07.

Consider `CO` [methanol] + CCCOC[n+]1ccn(C)c1.F[B-](F)(F)F, for which the activity coefficient reads like this: (323.15 K) 1.29 ± 0.08; (333.15 K) 1.2 ± 0.08; (343.15 K) 1.11 ± 0.07.

For the molecule `CO` [methanol] + CCCOC[n+]1ccn(C)c1.N#C[N-]C#N, the activity coefficient is, setting by setting: (323.15 K) 0.44 ± 0.04; (333.15 K) 0.44 ± 0.04; (343.15 K) 0.45 ± 0.04.

`CO` [methanol] + CCCOC[n+]1ccn(C)c1.O=S(=O)([N-]S(=O)(=O)C(F)(F)F)C(F)(F)F: the activity coefficient is 1.2 ± 0.08 (323.15 K), 1.12 ± 0.07 (333.15 K) and 1.04 ± 0.07 (343.15 K).

For `CO` [methanol] + CCCOC[n+]1ccn(Cc2ccccc2)c1.F[B-](F)(F)F, the activity coefficient amounted to 1.13 ± 0.07 (323.15 K), 1.04 ± 0.07 (333.15 K) and 0.97 ± 0.06 (343.15 K).

With `CO` [methanol] + CCCOC[n+]1ccn(Cc2ccccc2)c1.N#C[N-]C#N, the activity coefficient came to 0.39 ± 0.03 (323.15 K), 0.4 ± 0.03 (333.15 K) and 0.4 ± 0.03 (343.15 K).

Regarding `CO` [methanol] + CN(C)c1cc[n+](COCCCOC[n+]2ccc(N(C)C)cc2)cc1.O=S(=O)([N-]S(=O)(=O)C(F)(F)F)C(F)(F)F.O=S(=O)([N-]S(=O)(=O)C(F)(F)F)C(F)(F)F, the activity coefficient was 0.91 ± 0.06 (323.15 K), 0.86 ± 0.06 (333.15 K) and 0.79 ± 0.05 (343.15 K).

As to `CO` [methanol] + Cn1cc[n+](COCCCOC[n+]2ccn(C)c2)c1.N#C[N-]C#N.N#C[N-]C#N, the activity coefficient is, setting by setting: (323.15 K) 0.38 ± 0.03; (333.15 K) 0.38 ± 0.03; (343.15 K) 0.37 ± 0.03.

For the molecule `CO` [methanol] + Cn1cc[n+](COCCCOC[n+]2ccn(C)c2)c1.O=S(=O)([N-]S(=O)(=O)C(F)(F)F)C(F)(F)F.O=S(=O)([N-]S(=O)(=O)C(F)(F)F)C(F)(F)F, the activity coefficient stood at 0.76 ± 0.05 (323.15 K), 0.75 ± 0.05 (333.15 K) and 0.68 ± 0.05 (343.15 K).

For `CO` [methanol] + N#C[N-]C#N.N#C[N-]C#N.c1ccc(Cn2cc[n+](COCCCOC[n+]3ccn(Cc4ccccc4)c3)c2)cc1, the activity coefficient was 0.52 ± 0.04 (323.15 K), 0.51 ± 0.04 (333.15 K) and 0.52 ± 0.04 (343.15 K).

As to `CC1CCCCC1` [methylcyclohexane] + CCCCCCCCn1cc[n+](COCCC)c1C.N#C[N-]C#N, the activity coefficient turned out to be 5.11 ± 0.35 (323.15 K), 4.86 ± 0.33 (333.15 K) and 4.81 ± 0.33 (343.15 K).

(Values after the NIST ThermoML archive (doi:10.1016/j.fluid.2014.11.020).)
